Converted amounts (≈) assume the structure as drawn.
Test system: rat peritoneal mast cells (Rattus norvegicus)
Assay: In vitro histamine-release activity by using peritoneal cells from male Sprague-Dawley rats in a standard assay

- ED50: 46 µg/mL (≈ 32.5 µM)
SMILES: CC(=O)NC(Cc1ccc2ccccc2c1)C(=O)NC(Cc1ccccc1)C(=O)NC(Cc1ccccc1)C(=O)N[C@@H](CO)C(=O)N[C@@H](Cc1ccc(O)cc1)C(=O)NC(Cc1c[nH]c2ccccc12)C(=O)NC(Cc1ccccc1)C(=O)N[C@@H](CC(C)C)C(=O)N1CCC[C@@H]1C(=O)NC(C)C(N)=O (stereo in doubt)
